According to patent publication US20110097274A1, “Carbon-11 and fluorine-18 labeled radioligands for positron emission tomography (PET) imaging for the brain serotonin transporters” (priority 2002, published 2011):
“And” between values parts separate entries of the source, which are not always exact repeats. Equal values may be shown once. Read-outs that look alike come from different tables or passages of the source.

Legend:
[1] = Baboon PET study: plasma analysis / input function of parent compound; format: in vivo; conditions: baboons; for Vbol (initial distribution volume of parent compound) / Clearance of parent compound: i.v.; for Vbol (initial distribution volume of parent compound) / Clearance / Clearance of parent compound: mean ± SD of four experiments; for Clearance: male, monkey, arterial plasma, iv
Description: PET imaging protocol: PET experiments (n=20) were performed at Columbia University. Two adult male baboons (baboon A and B) were studied twice with each of the 5 radioligands (4 experiments per radioligand). All experiments took place within a 9-month period. Baboons A and B were 31 kg and 21 kg in weight at the beginning of the experimental period and 28 and 22 kg at the end, respectively.
Experiments were performed according to protocols approved by the Columbia-Presbyterian Medical Center Institutional Animal Care and Use Committee. […] Vital signs were monitored every 10 minutes and the temperature was kept constant at 37° C. with heated water blankets. An i.v. perfusion line was used for hydration and injection of radioligands and nonradioactive drugs. A catheter was inserted in a femoral artery for arterial blood sampling. Head was positioned at the center of the field of view as defined by imbedded laser lines. PET imaging was performed with the ECAT EXACT HR+PET scanner (Siemens/CTI, Knoxville, Tenn.). […] A 15 minute transmission scan was obtained prior to radioligand injection for attenuation correction. Activity was injected i.v. over 30 seconds.
Input function measurements: Arterial samples were collected every 5 seconds with an automated system for the first two minutes and manually thereafter at various intervals. A total of 28 samples were collected.
Selected plasma samples (n=6 per study, collected at 2, 4, 12, 30, 60 and 90 minutes after radioligand administration) were further processed by extraction with methanol (MeOH) followed by HPLC analysis to measure the fraction of plasma activity representing unmetabolized parent compound. The parent fraction was measured as follows: plasma (0.5 mL) was pipetted into a centrifuge tube containing MeOH (1.0 mL). […] The liquid phase was separated from the precipitate. Activity in 0.1 mL of the liquid phase was counted and the rest was injected onto the HPLC. The HPLC eluate was fraction-collected in 6 counting tubes (4.0 mL each). The HPLC system consisted of a Waters 510 isocratic pump, a Rheodyne injector equipped with a 2 mL sample loop, a C18 analytical column (Phenomenex ODS-prep, 10 μm, 4.6×250 mm), a Bioscan Flow Cell gamma detector (Bioscan, Washington, D.C.), and a fraction collector. The column was eluted with a mixture of acetonitrile and aqueous 0.1 M ammonium formate (proportion depending on the tracer being analyzed) at a flow rate of 2 mL/minute. Before plasma sample analysis, the retention time of the parent tracer was established by injection of a few μCi of the tracer and detection of the peak using the Bioscan gamma detector.
The parent fraction was calculated as the ratio of activity in the fractions containing the parent to that of the total activity collected. A biexponential function was fitted to the six measured parent fractions, and used to interpolate values between and after the measurements. […] The input function was then calculated as the product of total counts and interpolated fraction parent at each time point. The measured input function values were fitted to a sum of three exponentials, and the fitted values were used as input for the kinetic analyses. […] The initial distribution volume (Vbol, L) was calculated as the ratio of injected dose to peak plasma concentration.

[2] = humans, cited from earlier work; for Parent fraction in plasma at 30 minutes: literature
SERT [3] = molecular target: T1, SERT (Homo sapiens, UniProt P31645); conditions: cited from earlier work
T1 construct: consistent with values previously measured in six healthy humans (Parsey et al., 2000); host or cells: living human brain (PET, values quoted from Parsey et al. 2000, Ginovart et al. 2001)

SERT [4] = conditions: literature; cited from earlier work
SERT [5] = assay: Experiment 5: PET brain imaging of ^11C and ^18F labeled AFM, AFA, AFE in one baboon; format: in vivo; conditions: one adult male baboon, n = 1 to 4 scans, two-compartment model
Description: (§1) General scanning methods were as described in Huang et al. (2002). Arterial input function was measured and corrected for metabolites.
Activity distributed in the brain in accordance to the known density distribution pattern of SERT (Laruelle et al., 1988). […] Data were analyzed with a two-compartment model, using the metabolite-corrected arterial time-activity curve as input function. This analysis provided the regional distribution volumes (VT, mL/g).
The nonspecific distribution volume, measured as the distribution volume of the cerebellum (a region with negligible SERT density) was in a similar range for all tracers (10 to 30 mL/g, Table 16).
The specific to nonspecific partition coefficient, V3″, was calculated as the ratio of VT in the region of interest (ROI) to cerebellum VT minus one. V3″ provides a measure related to receptor parameters as follows: […]

[6] = Experiment 4: plasma analysis, [^11C]AFM and [^18F]AFM in the same baboon
Description: The animal was then injected with [^18F]AFM (2.60 mCi, 425 Ci/mmol, 1.51 μg) and scanned for 90 minutes. […] Arterial activity was corrected for parent fraction to form the input function.

[7] = Biodistribution of labeled radioligands in male Sprague-Dawley rats; format: in vivo; conditions: mean ± SD, n = 3
Source text: Appropriately labeled compounds were studied in animals to assess their binding characteristics in the brain. Procedures for these biodistribution studies are as follows. […] The brain regions (cerebellum, hippocampus, striatum, frontal cortex, thalamus and hypothalamus), along with samples of blood and part of the tail, were removed, weighed, and counted in a Packard Cobra II gamma counter. The percent injected dose (% ID) of the decay- and tail-corrected activity in the brain regions and blood were calculated based upon C-11 standards prepared from the injection solution, and the % ID/g were calculated using the tissue weights.

[8] = Experiment 5: plasma clearance of ^11C and ^18F labeled AFM, AFA, AFE in one baboon; format: in vivo; conditions: one adult male baboon, n = 1 to 4 scans
Description: as §1

SERT [9] = conditions: same baboon, one tissue compartment model
Description: The animal was then injected with [^18F]AFM (2.60 mCi, 425 Ci/mmol, 1.51 μg) and scanned for 90 minutes. Analysis of the input function and brain uptake was performed as described in the previous section. […] Arterial activity was corrected for parent fraction to form the input function.
Data were analyzed with a one tissue compartment model.

T1 sequence (P31645 whole entry): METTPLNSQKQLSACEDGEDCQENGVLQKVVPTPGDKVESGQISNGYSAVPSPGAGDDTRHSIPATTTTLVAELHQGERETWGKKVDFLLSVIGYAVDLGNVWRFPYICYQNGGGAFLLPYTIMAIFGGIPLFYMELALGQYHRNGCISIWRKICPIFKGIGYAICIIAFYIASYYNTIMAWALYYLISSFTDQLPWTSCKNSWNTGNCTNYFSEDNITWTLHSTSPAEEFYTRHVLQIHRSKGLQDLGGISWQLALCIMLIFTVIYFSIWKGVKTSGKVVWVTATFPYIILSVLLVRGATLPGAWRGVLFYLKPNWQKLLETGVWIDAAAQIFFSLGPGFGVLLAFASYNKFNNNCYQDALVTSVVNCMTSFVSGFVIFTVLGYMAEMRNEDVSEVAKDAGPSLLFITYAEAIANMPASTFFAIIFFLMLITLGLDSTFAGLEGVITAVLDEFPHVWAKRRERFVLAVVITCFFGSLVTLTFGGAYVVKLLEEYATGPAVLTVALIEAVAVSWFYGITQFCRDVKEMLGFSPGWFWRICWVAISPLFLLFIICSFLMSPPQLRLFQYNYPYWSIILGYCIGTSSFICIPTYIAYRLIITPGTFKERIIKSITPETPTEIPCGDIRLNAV

CN(C)Cc1ccccc1Sc1ccc(I)cc1N [[^11C]ADAM]
Vbol (initial distribution volume of parent compound) [1]: 8.1 ± 3.1 L
Clearance [1]: 1120 mL/min

CN(C)Cc1ccccc1Sc1ccc(Br)cc1N [[^11C]DAPA]
Vbol (initial distribution volume of parent compound) [1]: 8.5 ± 1.8 L
Clearance [1]: 967 mL/min

CN(C)Cc1ccccc1Sc1ccc(C#N)cc1N [[^11C]DASB]
Parent fraction in plasma at 30 minutes [2]: 40±7%
f1 (plasma free fraction) ([2]; n=5 (Ginovart et al., 2001)): 11.0±1.2%
Data acquisition required to derive stable VT values in all regions (SERT [3]; humans (Ginovart et al., 2001)): no more than 80 minutes
V3″ occipital cortex (SERT [3]; humans, literature): 0.51±0.09
VT CER (cerebellum distribution volume) (SERT [3]; humans, literature): 11.8 ± 1.5 mL/g
Kd (SERT [4]): 1.1 nM
Parent fraction in plasma at 30 minutes [1]: 20±1%
Vbol (initial distribution volume of parent compound) [1]: 12.6 ± 2.2 L
Clearance [1]: 1400 mL/min

CN([11CH3])Cc1ccccc1Sc1ccc(CF)cc1N [[^11C]AFM, [^11C]2-[2-(Dimethylaminomethyl)phenylthio]-5-fluoromethylphenylamine]
Cerebellum V (nonspecific distribution volume) (SERT [5]): 32 ± 6 mL/g
Clearance of the parent compound [6]: 31 L/h
Percent plasma activity corresponding to the parent compound ([6]; 2 minutes): 75.6%
Percent plasma activity corresponding to the parent compound ([6]; 4 minutes): 55.4%
Percent plasma activity corresponding to the parent compound ([6]; 12 minutes): 21.4%
Percent plasma activity corresponding to the parent compound ([6]; 30 minutes): 9.4%
Percent plasma activity corresponding to the parent compound ([6]; 60 minutes): 6.4%
Percent plasma activity corresponding to the parent compound ([6]; 90 minutes): 6.7%
% ID/g Blood ([7]; 10 min post-injection): 0.37 ± 0.28 % ID/g
% ID/g Cerebellum ([7]; 10 min post-injection): 0.40 ± 0.06 % ID/g
% ID/g Frontal Ctx. ([7]; 10 min post-injection): 0.99 ± 0.25 % ID/g
% ID/g Hippocamp. ([7]; 10 min post-injection): 0.59 ± 0.14 % ID/g
% ID/g Hypothal. ([7]; 10 min post-injection): 0.75 ± 0.19 % ID/g
% ID/g Striatum ([7]; 10 min post-injection): 0.72 ± 0.17 % ID/g
% ID/g Thalamus ([7]; 10 min post-injection): 0.79 ± 0.15 % ID/g
% ID/g Blood ([7]; 30 min post-injection): 0.28 ± 0.01 % ID/g
% ID/g Cerebellum ([7]; 30 min post-injection): 0.41 ± 0.11 % ID/g
% ID/g Frontal Ctx. ([7]; 30 min post-injection): 1.31 ± 0.28 % ID/g
% ID/g Hippocamp. ([7]; 30 min post-injection): 0.95 ± 0.29 % ID/g
% ID/g Hypothal. ([7]; 30 min post-injection): 1.37 ± 0.48 % ID/g
% ID/g Striatum ([7]; 30 min post-injection): 1.12 ± 0.21 % ID/g
% ID/g Thalamus ([7]; 30 min post-injection): 1.18 ± 0.30 % ID/g
% ID/g Blood ([7]; 60 min post-injection): 0.19 ± 0.03 % ID/g
% ID/g Cerebellum ([7]; 60 min post-injection): 0.21 ± 0.04 % ID/g
% ID/g Frontal Ctx. ([7]; 60 min post-injection): 1.37 ± 0.10 % ID/g
% ID/g Hippocamp. ([7]; 60 min post-injection): 0.84 ± 0.10 % ID/g
% ID/g Hypothal. ([7]; 60 min post-injection): 1.27 ± 0.16 % ID/g
% ID/g Striatum ([7]; 60 min post-injection): 1.02 ± 0.15 % ID/g
% ID/g Thalamus ([7]; 60 min post-injection): 1.29 ± 0.22 % ID/g
Clearance [8]: 47 ± 11 L/h
Thalamus V3″ (SERT [9]): 2.26
Clearance of parent compound [1]: 90 ± 46 L/h
Vbol (initial distribution volume of parent compound) [1]: 17.6 ± 1.3 L

[11CH3]Sc1ccc([C@H]2CN3CCC[C@H]3c3ccccc32)cc1 [[^11C]McN 5652]
Parent fraction in plasma at 30 minutes [2]: 59±10%
V3″ medial prefrontal cortex (SERT [3]; humans (Parsey et al., 2000)): 0.08
V3″ cingulate cortex (SERT [3]; humans, literature): 0.21
V3″ hippocampus (SERT [3]; humans, literature): 0.49
V3″ midbrain (SERT [3]; humans, literature): 1.63
V3″ occipital cortex (SERT [3]; humans, literature): 0.17
V3″ striatum (SERT [3]; humans, literature): 1.03
V3″ temporal cortex (SERT [3]; humans, literature): 0.22
V3″ thalamus (SERT [3]; humans, literature): 0.92
VT CER (cerebellum distribution volume) (SERT [3]; humans, literature): 17.8 ± 1.9 mL/g and 11.9 ± 3.3 mL/g
Data acquisition required for time-independent / stable VT or BP estimates (SERT [3]; humans, regions with high SERT density such as the midbrain (Parsey et al., 2000)): at least 120 minutes
Parent fraction in plasma at 30 minutes [1]: 28±13%
Clearance of parent compound [1]: 58 ± 13 L/h
Vbol (initial distribution volume of parent compound) [1]: 5.9 ± 1.8 L
